Counter-ions that a name gives are not always drawn.
Legend:
Test in all cases: Anticancer activity towards LN229 human brain glioblastoma cells (nuclei count after 120 hours)
Assay type in all cases: cell-based
Settings in all cases: LN-229, LN229 quad cells, 200 μM to 0.1 uM
LN229 MGMT+ MMR− cells = tested on: LN229 MGMT+ MMR− cells
Protocol: (§1) Exemplary compounds were evaluated for activity against LN229 human brain glioblastoma cells. Experimental procedures and results are provided elsewhere herein.
(§2) LN229 quad cells were maintained in Dulbecco's Modified Eagle Medium (DMEM) supplemented with 10% fetal bovine serum. Cells were plated into sterile black with glass bottom 384-well plates (Cellvis) at a concentration of 1,000 cells/well (20 μL total volume) using a MultiDrop (Thermo Fisher). Then, assay plates were centrifuged at 300 rpm for 2 seconds and incubated overnight in a 37° C. 5% CO2 incubator. Compounds were prepared as 100 mM stocks in DMSO and stored protected from light at −20′C until use. Prior to compound addition, the stock solutions of compound were diluted two-fold serially in DMSO from 100 mM down to 0.05 mM in a 384-well Source plate. Vehicle control wells containing DMSO and positive control wells containing 10 mM bortezomib were also added to the Source plate. An aliquot in the amount of 40 nL of compound stock solution or DMSO vehicle was transferred from the source plate to the cell assay plate using an Echo Acoustic dispense (Beckman). Three replicate dilution curves of each compound were run on each assay plate. An aliquot in the amount of 120 nL of a 10 mM bortezomib solution was transferred to the positive control wells resulting in a final concentration of 60 μM. The final concentration of compounds ranged from 200 μM to 0.1 uM (12-point, 2-fold dilution dose response curve), and the final DMSO concentration was 0.2%.
(§3) Assay plates were centrifuged at 500 rpm for 2 seconds and incubated for 120 hours at 37° C. in a humidified 5% CO2 incubator. Following incubation, cells were fixed with 4% paraformaldehyde and stained with DAPI for nuclei visualization. The images were acquired on the InCell 2200 high content imager (GE, now […]), and quantified using InCell Analyzer image analysis software. Z prime factor, signal-to-background and coefficient of variation were calculated for each assays plate using mean and standard deviation values of the negative (vehicle) and positive (bortezomib) control wells to ensure assay robustness. Raw cell count data for test compounds was normalized to percent viability relative to the DMSO vehicle control. Data was plotted in GraphPad Prism using a variable slope 4-parameter fit.

LN229 MGMT− MMR− cells = tested on: LN229 MGMT− MMR− cells
Protocol: as §1, §2, §3

LN229 MGMT− MMR+ cells = tested on: LN229 MGMT− MMR+ cells
Protocol: as §1, §2, §3

LN229 MGMT+ MMR+ cells = tested on: LN229 MGMT+ MMR+ cells
Protocol: as §1, §2, §3

SMILES | IC50 (LN229 MGMT+ MMR− cells) | IC50 (LN229 MGMT− MMR− cells) | IC50 (LN229 MGMT− MMR+ cells) | IC50 (LN229 MGMT+ MMR+ cells)
O=C(Nc1nccs1)c1ncn2c(=O)n(CCF)nnc12 [Compound I-7, 3-(2-fluoroethyl)-4-oxo-N-(1,3-thiazol-2-yl)-3H,4H-imidazo[4,3-d][1,2,3,5]tetrazine-8-carboxamide] | < 10 µM | < 10 µM | < 10 µM | < 10 µM
O=C(Nc1ccccn1)c1ncn2c(=O)n(CCF)nnc12 [Compound I-8, 3-(2-fluoroethyl)-4-oxo-N-(pyridin-2-yl)-3H,4H-imidazo[4,3-d][1,2,3,5]tetrazine-8-carboxamide] | > 80 µM | < 10 µM | 10 to 20 µM | > 80 µM
CCCN(CCC)C(=O)c1ncn2c(=O)n(CCF)nnc12 [Compound I-13, 3-(2-fluoroethyl)-4-oxo-N,N-dipropyl-3H,4H-imidazo[4,3-d][1,2,3,5]tetrazine-8-carboxamide] | 20 to 50 µM | 10 to 20 µM | 20 to 50 µM | 20 to 50 µM
CCN(C)C(=O)c1ncn2c(=O)n(CCF)nnc12 [Compound I-14, N-ethyl-3-(2-fluoroethyl)-N-methyl-4-oxo-3H,4H-imidazo[4,3-d][1,2,3,5]tetrazine-8-carboxamide] | > 80 µM | 10 to 20 µM | 20 to 50 µM | > 80 µM
CCN(CC)C(=O)c1ncn2c(=O)n(CCF)nnc12 [Compound I-15, N,N-diethyl-3-(2-fluoroethyl)-4-oxo-3H,4H-imidazo[4,3-d][1,2,3,5]tetrazine-8-carboxamide] | > 80 µM | 10 to 20 µM | 50 to 80 µM | > 80 µM
CCCN(C)C(=O)c1ncn2c(=O)n(CCF)nnc12 [Compound I-17, 3-(2-fluoroethyl)-N-methyl-4-oxo-N-propyl-3H,4H-imidazo[4,3-d][1,2,3,5]tetrazine-8-carboxamide] | > 80 µM | 20 to 50 µM | > 80 µM | > 80 µM
CCCN(CC)C(=O)c1ncn2c(=O)n(CCF)nnc12 [Compound I-18, N-ethyl-3-(2-fluoroethyl)-4-oxo-N-propyl-3H,4H-imidazo[4,3-d][1,2,3,5]tetrazine-8-carboxamide] | > 80 µM | 20 to 50 µM | > 80 µM | > 80 µM
[2H]C([2H])([2H])N(Cc1ccccc1)C(=O)c1ncn2c(=O)n(CCF)nnc12 [Compound I-20, N-benzyl-3-(2-fluoroethyl)-N-(2H3)methyl-4-oxo-3H,4H-imidazo[4,3-][1,2,3,5]tetrazine-8-carboxamide] | > 80 µM | < 10 µM | 50 to 80 µM | > 80 µM

The remaining lines, values ahead:

IC50 (LN229 MGMT+ MMR− cells) | IC50 (LN229 MGMT− MMR− cells) | IC50 (LN229 MGMT− MMR+ cells) | IC50 (LN229 MGMT+ MMR+ cells) | SMILES
> 80 µM | < 10 µM | 10 to 20 µM | > 80 µM | CCNC(=O)c1ncn2c(=O)n(CCF)nnc12 [Compound I-2, N-ethyl-3-(2-fluoroethyl)-4-oxo-3H,4H-imidazo[4,3-d][1,2,3,5]tetrazine-8-carboxamide]
> 80 µM | < 10 µM | < 10 µM | > 80 µM | O=C(NCC(F)(F)F)c1ncn2c(=O)n(CCF)nnc12 [Compound I-3, 3-(2-fluoroethyl)-4-oxo-N-(2,2,2-trifluoroethyl)-3H,4H-imidazo[4,3-d][1,2,3,5]tetrazine-carboxamide]
> 80 µM | < 10 µM | 10 to 20 µM | > 80 µM | O=C(NC1CC1)c1ncn2c(=O)n(CCF)nnc12 [Compound I-4, N-cyclopropyl-3-(2-fluoroethyl)-4-oxo-3H,4H-imidazo[4,3-d][1,2,3,5]tetrazine-8-carboxamide]
> 80 µM | < 10 µM | 10 to 20 µM | > 80 µM | O=C(NC1CCC1)c1ncn2c(=O)n(CCF)nnc12 [Compound I-5, N-cyclobutyl-3-(2-fluoroethyl)-4-oxo-3H,4H-imidazo[4,3-d][1,2,3,5]tetrazine-8-carboxamide]
> 80 µM | 10 to 20 µM | 20 to 50 µM | > 80 µM | CN(C)C(=O)c1ncn2c(=O)n(CCF)nnc12 [Compound I-6, 3-(2-fluoroethyl)-N,N-dimethyl-4-oxo-3H,4H-imidazo[4,3-d][1,2,3,5]tetrazine-8-carboxamide]
> 80 µM | < 10 µM | 10 to 20 µM | > 80 µM | O=C(c1ncn2c(=O)n(CCF)nnc12)N1CCC1 [Compound I-9, 8-(azetidine-1-carbonyl)-3-(2-fluoroethyl)-3H,4H-imidazo[4,3-d][1,2,3,5]tetrazin-4-one]
> 80 µM | < 10 µM | 20 to 50 µM | > 80 µM | O=C(c1ncn2c(=O)n(CCF)nnc12)N1CCCC1 [Compound I-10, 3-(2-fluoroethyl)-8-(pyrrolidine-1-carbonyl)-3H,4H-imidazo[4,3-d][1,2,3,5]tetrazin-4-one]
> 80 µM | < 10 µM | < 10 µM | > 80 µM | CN(C)CCNC(=O)c1ncn2c(=O)n(CCF)nnc12 [Compound I-12, N-[2-(dimethylamino)ethyl]-3-(2-fluoroethyl)-4-oxo-3H,4H-imidazo[4,3-d][1,2,3,5]tetrazine-8-carboxamide hydrochloride]
> 80 µM | < 10 µM | 10 to 20 µM | > 80 µM | CCCNC(=O)c1ncn2c(=O)n(CCF)nnc12 [Compound I-16, 3-(2-fluoroethyl)-4-oxo-N-propyl-3H,4H-imidazo[4,3-d][1,2,3,5]tetrazine-8-carboxamide]
> 80 µM | < 10 µM | 50 to 80 µM | > 80 µM | [2H]C([2H])([2H])NC(=O)c1ncn2c(=O)n(CCF)nnc12 [Compound I-19, 3-(2-fluoroethyl)-N-(D3)methyl-4-oxo-3H,4H-imidazo[4,3-d][1,2,3,5]tetrazine-8-carboxamide]
